Laboratory results: ChEMBL document CHEMBL3885881, “DrugMatrix”

Species: Rattus norvegicus
Assay: DrugMatrix - Regimen: Daily Repeat
Format: toxicity, organism-based, Sprague-Dawley
Parameters: regimen Daily Repeat, gender Male, age 6-8 weeks
Conditions: in vivo, po, route oral GAVAGE, vehicle 100 % SALINE; for ABSOLUTE BASOPHIL / ABSOLUTE EOSINOPHIL / ABSOLUTE LYMPHOCYTE / ABSOLUTE MONOCYTE / ABSOLUTE SEGMENTED NEUTROPHIL / BASOPHIL / EOSINOPHIL / ERYTHROCYTE COUNT / HEMATOCRIT / HEMOGLOBIN / LEUKOCYTE COUNT / LYMPHOCYTE / MEAN CORPUSCULAR HEMOGLOBIN / MEAN CORPUSCULAR HEMOGLOBIN CONCENTRATION / MEAN CORPUSCULAR VOLUME / MONOCYTE / NEUTROPHIL / NUCLEATED RED BLOOD CELLS / PLATELET COUNT: tissue Blood; for ALANINE AMINOTRANSFERASE / ALBUMIN / ALKALINE PHOSPHATASE / ASPARTATE AMINOTRANSFERASE / BLOOD UREA NITROGEN / CARBON DIOXIDE / CHLORIDE / CHOLESTEROL / CREATINE PHOSPHOKINASE / CREATININE / GLUCOSE / LACTATE DEHYDROGENASE / LIPASE / PHOSPHORUS / POTASSIUM / SODIUM / TOTAL BILIRUBIN / TOTAL PROTEIN / URIC ACID: tissue Plasma
[1] = 0 mg/kg, 72 h, dose level Control, time 3 day
[2] = 0 mg/kg, 120 h, dose level Control, time 5 day
[3] = 29 mg/kg, 72 h, dose level Low, time 3 day

Cc1ccnc2c1NC(=O)c1cccnc1N2C1CC1 [NEVIRAPINE]
ABSOLUTE BASOPHIL [1]: 0 CELLS/uL
ABSOLUTE EOSINOPHIL [1]: 37 CELLS/uL
ABSOLUTE LYMPHOCYTE [1]: 12359.33 CELLS/uL
ABSOLUTE MONOCYTE [1]: 122.67 CELLS/uL
ABSOLUTE SEGMENTED NEUTROPHIL [1]: 847.67 CELLS/uL
BASOPHIL [1]: 0%
EOSINOPHIL [1]: 0.33%
ERYTHROCYTE COUNT [1]: 5.75 x10E6/uL
HEMATOCRIT [1]: 36.08%
HEMOGLOBIN [1]: 14.07 G/DL
LEUKOCYTE COUNT [1]: 13.37 x10E3/uL
LYMPHOCYTE [1]: 92.5%
MEAN CORPUSCULAR HEMOGLOBIN [1]: 24.47 pg
MEAN CORPUSCULAR HEMOGLOBIN CONCENTRATION [1]: 38.98 G/DL
MEAN CORPUSCULAR VOLUME [1]: 62.78 fL
MONOCYTE [1]: 1%
NEUTROPHIL [1]: 6.17%
NUCLEATED RED BLOOD CELLS [1]: 0.17 /100WBC
PLATELET COUNT [1]: 1202.17 x10E3/uL
ALANINE AMINOTRANSFERASE [1]: 50.67 u/L
ALBUMIN [1]: 4.13 G/DL
ALKALINE PHOSPHATASE [1]: 356.33 u/L
ASPARTATE AMINOTRANSFERASE [1]: 78.17 u/L
BLOOD UREA NITROGEN [1]: 14.17 mg/dL
CARBON DIOXIDE [1]: 31.33 mmol/L
CHLORIDE [1]: 98.5 MEQ/L
CHOLESTEROL [1]: 76.5 mg/dL
CREATINE PHOSPHOKINASE [1]: 248.33 u/L
CREATININE [1]: 0.2 mg/dL
GLUCOSE [1]: 144 mg/dL
LACTATE DEHYDROGENASE [1]: 107 u/L
LIPASE [1]: 9.83 u/L
PHOSPHORUS [1]: 12.8 mg/dL
POTASSIUM [1]: 6.75 MEQ/L
SODIUM [1]: 142 MEQ/L
TOTAL BILIRUBIN [1]: 0.18 mg/dL
TOTAL PROTEIN [1]: 5.98 G/DL
URIC ACID [1]: 1.42 mg/dL
ABSOLUTE BASOPHIL [2]: 0 CELLS/uL
ABSOLUTE EOSINOPHIL [2]: 0 CELLS/uL
ABSOLUTE LYMPHOCYTE [2]: 8681.17 CELLS/uL
ABSOLUTE MONOCYTE [2]: 79.83 CELLS/uL
ABSOLUTE SEGMENTED NEUTROPHIL [2]: 689 CELLS/uL
BASOPHIL [2]: 0%
EOSINOPHIL [2]: 0%
ERYTHROCYTE COUNT [2]: 5.49 x10E6/uL
HEMATOCRIT [2]: 33.55%
HEMOGLOBIN [2]: 13.1 G/DL
LEUKOCYTE COUNT [2]: 9.45 x10E3/uL
LYMPHOCYTE [2]: 92.33%
MEAN CORPUSCULAR HEMOGLOBIN [2]: 23.92 pg
MEAN CORPUSCULAR HEMOGLOBIN CONCENTRATION [2]: 39.07 G/DL
MEAN CORPUSCULAR VOLUME [2]: 61.22 fL
MONOCYTE [2]: 0.67%
NEUTROPHIL [2]: 7%
NUCLEATED RED BLOOD CELLS [2]: 0.17 /100WBC
PLATELET COUNT [2]: 1001.17 x10E3/uL
ALANINE AMINOTRANSFERASE [2]: 49.33 u/L
ALBUMIN [2]: 4.07 G/DL
ALKALINE PHOSPHATASE [2]: 300.33 u/L
ASPARTATE AMINOTRANSFERASE [2]: 83.5 u/L
BLOOD UREA NITROGEN [2]: 16 mg/dL
CARBON DIOXIDE [2]: 29.67 mmol/L
CHLORIDE [2]: 100.5 MEQ/L
CHOLESTEROL [2]: 74.33 mg/dL
CREATINE PHOSPHOKINASE [2]: 489.67 u/L
CREATININE [2]: 0.35 mg/dL
GLUCOSE [2]: 151 mg/dL
LACTATE DEHYDROGENASE [2]: 133.67 u/L
LIPASE [2]: 11.17 u/L
PHOSPHORUS [2]: 10.88 mg/dL
POTASSIUM [2]: 5.5 MEQ/L
SODIUM [2]: 145.7 MEQ/L
TOTAL BILIRUBIN [2]: 0.2 mg/dL
TOTAL PROTEIN [2]: 6.05 G/DL
URIC ACID [2]: 0.68 mg/dL
ABSOLUTE BASOPHIL [3]: 0 CELLS/uL
ABSOLUTE EOSINOPHIL [3]: 29.67 CELLS/uL
ABSOLUTE LYMPHOCYTE [3]: 8345.33 CELLS/uL
ABSOLUTE MONOCYTE [3]: 0 CELLS/uL
ABSOLUTE SEGMENTED NEUTROPHIL [3]: 725 CELLS/uL
BASOPHIL [3]: 0%
EOSINOPHIL [3]: 0.33%
ERYTHROCYTE COUNT [3]: 5.42 x10E6/uL
HEMATOCRIT [3]: 33.9%
HEMOGLOBIN [3]: 13.2 G/DL
LEUKOCYTE COUNT [3]: 9.1 x10E3/uL
LYMPHOCYTE [3]: 91.67%
MEAN CORPUSCULAR HEMOGLOBIN [3]: 24.43 pg
MEAN CORPUSCULAR HEMOGLOBIN CONCENTRATION [3]: 38.93 G/DL
MEAN CORPUSCULAR VOLUME [3]: 62.7 fL
MONOCYTE [3]: 0%
NEUTROPHIL [3]: 8%
NUCLEATED RED BLOOD CELLS [3]: 0 /100WBC
PLATELET COUNT [3]: 673.67 x10E3/uL
ALANINE AMINOTRANSFERASE [3]: 74.33 u/L
ALBUMIN [3]: 4.3 G/DL
ALKALINE PHOSPHATASE [3]: 343.67 u/L
ASPARTATE AMINOTRANSFERASE [3]: 123.67 u/L
BLOOD UREA NITROGEN [3]: 10.33 mg/dL
CARBON DIOXIDE [3]: 28.33 mmol/L
CHOLESTEROL [3]: 68.67 mg/dL
CREATINE PHOSPHOKINASE [3]: 179.33 u/L
CREATININE [3]: 0.43 mg/dL
GLUCOSE [3]: 142.67 mg/dL
LACTATE DEHYDROGENASE [3]: 65.33 u/L
LIPASE [3]: 15.67 u/L
PHOSPHORUS [3]: 10.83 mg/dL
TOTAL BILIRUBIN [3]: 0.13 mg/dL
TOTAL PROTEIN [3]: 5.03 G/DL
URIC ACID [3]: 0.37 mg/dL
ABSOLUTE BASOPHIL (29 mg/kg, 120 h, dose level Low, time 5 day): 0 CELLS/uL
